Ki data for six molecules are collected here from US12559529B2, “NPY2 receptor agonists” (Boehringer Ingelheim International GmbH, priority 2019, dated 2026).

Structures are written as SMILES.

This test has as its target T1, Human Neuropeptide Y2 Receptor (Homo sapiens, UniProt P49146).
T1 construct: purchased CHEMICON HTS066M
T1 sequence (P49146 1-381): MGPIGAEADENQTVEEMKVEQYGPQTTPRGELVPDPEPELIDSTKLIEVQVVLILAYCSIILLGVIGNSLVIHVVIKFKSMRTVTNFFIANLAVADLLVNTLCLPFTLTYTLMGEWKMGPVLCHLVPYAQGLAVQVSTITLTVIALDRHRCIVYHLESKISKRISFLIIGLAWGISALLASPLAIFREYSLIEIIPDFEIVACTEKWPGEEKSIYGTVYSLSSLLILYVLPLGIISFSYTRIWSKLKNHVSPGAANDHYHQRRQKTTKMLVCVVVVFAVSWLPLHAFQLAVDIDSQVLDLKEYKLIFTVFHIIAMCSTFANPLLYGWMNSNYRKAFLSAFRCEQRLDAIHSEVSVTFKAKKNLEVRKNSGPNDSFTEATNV
Briefly: Radioligand binding competition assay (RLB). Particulars: Table 3; human 125I-PYY (1-36) 0.02 nM, Y2 receptor membranes; read-out: Ki. In short, it runs like this:
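Membranes from cells expressing human Y2 receptor (0.5 μg protein/well) were incubated with radioligand and serially diluted peptides in 50 mM HEPES, 5 mM MgCl2, 1 mM CaCl2, 0.2% ovalbumin, pH 7.4, for 2 h at room temperature with shaking. Bound radioactivity was collected by filtration and counted; IC50 from sigmoidal nonlinear regression.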
As a reminder, the Ki is the dissociation constant of the complex between target and ligand, obtained from inhibition or displacement. Regarding `CC(C)CC(=O)N[C@@H](C)C(=O)N1CCC[C@H]1C(=O)N[C@@H](CCC(=O)O)C(=O)N[C@@H](CCCCNC(=O)COCCOCCNC(=O)COCCOCCNC(=O)CC[C@H](NC(=O)CCCCCCCCCCCCCCCCC(=O)O)C(=O)O)C(=O)N1CCC[C@H]1C(=O)N[C@@H](CCC(=O)O)C(=O)N[C@@H](CCC(=O)O)C(=O)N[C@@H](CC(=O)O)C(=O)N[C@@H](C)C(=O)N[C@@H](CO)C(=O)N1CCC[C@H]1C(=O)N[C@@H](CCC(=O)O)C(=O)N[C@@H](CCC(=O)O)C(=O)N[C@H](C(=O)N[C@@H](CCC(N)=O)C(=O)N[C@@H](CCCNC(=N)N)C(=O)N[C@@H](Cc1ccc(O)cc1)C(=O)N[C@@H](Cc1ccc(O)cc1)C(=O)N[C@H](C(=O)N[C@@H](CCC(=O)O)C(=O)N[C@@H](CC(C)C)C(=O)N[C@@H](CCCNC(=N)N)C(=O)N[C@@H](Cc1c[nH]cn1)C(=O)N[C@@H](Cc1ccc(O)cc1)C(=O)N[C@@H](Cc1ccc(O)cc1)C(=O)N[C@@H](CC(N)=O)C(=O)N[C@@H](Cc1c[nH]c2ccccc12)C(=O)N[C@@H](CC(C)C)C(=O)N[C@H](C(=O)N[C@@H](CCCNC(=N)N)C(=O)N[C@@H](CCC(N)=O)C(=O)N[C@@H](CCCNC(=N)N)C(=O)N[C@@H](Cc1ccc(O)cc1)C(N)=O)[C@@H](C)O)C(C)C)[C@@H](C)O` [Compound 94, N{alpha-4}-(3-methylbutanoyl)-N{epsilon-7}-[2-(2-{2-[2-(2-{2-[(4S)-4-carboxy-4-(17-carboxyheptadecanamido)butanamido]ethoxy}ethoxy)acetamido]ethoxy}ethoxy)acetamido]-[4A,7K,9E,17T,18Q,22V,23E,28Y,30W,31L]hPYY (4-36)], the Ki stood at 2.07 nM.

Regarding `CC[C@H](C)[C@H](NC(=O)[C@H](CCC(=O)O)NC(=O)[C@H](C)NC(=O)[C@@H]1CCCN1C(=O)[C@H](CO)NC(=O)[C@H](C)NC(=O)[C@H](CC(=O)O)NC(=O)[C@H](CCC(=O)O)NC(=O)[C@H](CCC(=O)O)NC(=O)[C@@H]1CCCN1C(=O)[C@H](CCCCNC(=O)COCCOCCNC(=O)COCCOCCNC(=O)CC[C@H](NC(=O)CCCCCCCCCCCCCCCCC(=O)O)C(=O)O)NC(=O)[C@H](CCC(=O)O)NC(=O)[C@@H]1CCCN1C(=O)[C@H](C)NC(=O)CC(C)C)C(=O)N[C@@H](CCC(N)=O)C(=O)N[C@@H](CCCNC(=N)N)C(=O)N[C@@H](Cc1ccc(O)cc1)C(=O)N[C@@H](Cc1ccc(O)cc1)C(=O)N[C@H](C(=O)N[C@@H](CO)C(=O)N[C@@H](CC(C)C)C(=O)N[C@@H](CCCNC(=N)N)C(=O)N[C@@H](Cc1c[nH]cn1)C(=O)N[C@@H](Cc1ccc(O)cc1)C(=O)N[C@@H](Cc1ccc(O)cc1)C(=O)N[C@@H](CC(N)=O)C(=O)N[C@@H](Cc1c[nH]c2ccccc12)C(=O)N[C@@H](CC(C)C)C(=O)N[C@H](C(=O)N[C@@H](CCCNC(=N)N)C(=O)N[C@@H](CCC(N)=O)C(=O)N[C@@H](CCCNC(=N)N)C(=O)N[C@@H](Cc1ccc(O)cc1)C(N)=O)[C@@H](C)O)C(C)C` [Compound 95, N{alpha-4}-(3-methylbutanoyl)-N{epsilon-7}-[2-(2-{2-[2-(2-{2-[(4S)-4-carboxy-4-(17-carboxyheptadecanamido)butanamido]ethoxy}ethoxy)acetamido]ethoxy}ethoxy)acetamido]-[4A,7K,9E,15A,17I,18Q,22V,28Y,30W,31L]hPYY (4-36)], the Ki turned out to be 0.66 nM.

On to `CC(C)CC(=O)N[C@@H](C)C(=O)N1CCC[C@H]1C(=O)N[C@@H](C)C(=O)N[C@@H](CCCCNC(=O)COCCOCCNC(=O)COCCOCCNC(=O)CC[C@H](NC(=O)CCCCCCCCCCCCCCCCC(=O)O)C(=O)O)C(=O)N1CCC[C@H]1C(=O)N1CCC[C@H]1C(=O)N[C@@H](CCC(=O)O)C(=O)N[C@@H](CC(=O)O)C(=O)N[C@@H](C)C(=O)N[C@@H](CO)C(=O)N1CCC[C@H]1C(=O)N[C@@H](CCC(=O)O)C(=O)N[C@@H](CCC(=O)O)C(=O)N[C@@H](CC(C)C)C(=O)N[C@@H](CCC(N)=O)C(=O)N[C@@H](CCCNC(=N)N)C(=O)N[C@@H](Cc1ccc(O)cc1)C(=O)N[C@@H](Cc1ccc(O)cc1)C(=O)N[C@H](C(=O)N[C@@H](CO)C(=O)N[C@@H](CC(C)C)C(=O)N[C@@H](CCCNC(=N)N)C(=O)N[C@@H](Cc1c[nH]cn1)C(=O)N[C@@H](Cc1ccc(O)cc1)C(=O)N[C@@H](Cc1ccc(O)cc1)C(=O)N[C@@H](CC(N)=O)C(=O)N[C@@H](Cc1c[nH]c2ccccc12)C(=O)N[C@@H](CC(C)C)C(=O)N[C@H](C(=O)N[C@@H](CCCNC(=N)N)C(=O)N[C@@H](CCC(N)=O)C(=O)N[C@@H](CCCNC(=N)N)C(=O)N[C@@H](Cc1ccc(O)cc1)C(N)=O)[C@@H](C)O)C(C)C` [Compound 100, N{alpha-4}-(3-methylbutanoyl)-N{epsilon-7}-[2-(2-{2-[2-(2-{2-[(4S)-4-carboxy-4-(17-carboxyheptadecanamido)butanamido]ethoxy}ethoxy)acetamido]ethoxy}ethoxy)acetamido]-[4A,6A,7K,9P,18Q,22V,28Y,30W,31L]hPYY (4-36)], for which the Ki is 0.44 nM.

On to `CC(C)CC(=O)N[C@@H](C)C(=O)N1CCC[C@H]1C(=O)N[C@@H](CCC(=O)O)C(=O)N[C@@H](CCCCNC(=O)COCCOCCNC(=O)COCCOCCNC(=O)CC[C@H](NC(=O)CCCCCCCCCCCCCCCCC(=O)O)C(=O)O)C(=O)N1CCC[C@H]1C(=O)N[C@@H](CCC(=O)O)C(=O)N[C@@H](CCC(=O)O)C(=O)N[C@@H](CC(=O)O)C(=O)N[C@@H](C)C(=O)N[C@@H](CO)C(=O)N1CCC[C@H]1C(=O)N[C@@H](CCC(=O)O)C(=O)N[C@@H](CCC(=O)O)C(=O)N[C@@H](CC(C)C)C(=O)N[C@@H](CCC(N)=O)C(=O)N[C@@H](CCCNC(=N)N)C(=O)N[C@@H](Cc1ccc(O)cc1)C(=O)N[C@@H](Cc1ccc(O)cc1)C(=O)N[C@H](C(=O)N[C@H](C(=O)N[C@@H](CC(C)C)C(=O)N[C@@H](CCCNC(=N)N)C(=O)N[C@@H](Cc1c[nH]cn1)C(=O)N[C@@H](Cc1ccc(O)cc1)C(=O)N[C@@H](Cc1ccc(O)cc1)C(=O)N[C@@H](CC(N)=O)C(=O)N[C@@H](Cc1c[nH]c2ccccc12)C(=O)N[C@@H](CC(C)C)C(=O)N[C@H](C(=O)N[C@@H](CCCNC(=N)N)C(=O)N[C@@H](CCC(N)=O)C(=O)N[C@@H](CCCNC(=N)N)C(=O)N[C@@H](Cc1ccc(O)cc1)C(N)=O)[C@@H](C)O)[C@@H](C)O)C(C)C` [Compound 102, N{alpha-4}-(3-methylbutanoyl)-N{epsilon-7}-[2-(2-{2-[2-(2-{2-[(4S)-4-carboxy-4-(17-carboxyheptadecanamido)butanamido]ethoxy}ethoxy)acetamido]ethoxy}ethoxy)acetamido]-[4A,7K,9E,18Q,22V,23T,28Y,30W,31L]hPYY (4-36)], for which the Ki came out at 0.87 nM.

As for `CC(C)CC(=O)N[C@@H](C)C(=O)N1CCC[C@H]1C(=O)N[C@@H](CCC(=O)O)C(=O)N[C@@H](CCCCNC(=O)COCCOCCNC(=O)COCCOCCNC(=O)CC[C@H](NC(=O)CCCCCCCCCCCCCCCCC(=O)O)C(=O)O)C(=O)N1CCC[C@H]1C(=O)N[C@@H](CCC(=O)O)C(=O)N[C@@H](CCC(=O)O)C(=O)N[C@@H](CC(=O)O)C(=O)N[C@@H](C)C(=O)N[C@@H](CO)C(=O)N1CCC[C@H]1C(=O)N[C@@H](CCC(=O)O)C(=O)N[C@@H](CCC(=O)O)C(=O)N[C@@H](CC(C)C)C(=O)N[C@@H](CCC(N)=O)C(=O)N[C@@H](CCCCN)C(=O)N[C@@H](Cc1ccc(O)cc1)C(=O)N[C@@H](Cc1ccc(O)cc1)C(=O)N[C@H](C(=O)N[C@@H](C)C(=O)N[C@@H](CC(C)C)C(=O)N[C@@H](CCCNC(=N)N)C(=O)N[C@@H](Cc1c[nH]cn1)C(=O)N[C@@H](Cc1ccc(O)cc1)C(=O)N[C@@H](Cc1ccc(O)cc1)C(=O)N[C@@H](CC(N)=O)C(=O)N[C@@H](Cc1c[nH]c2ccccc12)C(=O)N[C@@H](CC(C)C)C(=O)N[C@H](C(=O)N[C@@H](CCCNC(=N)N)C(=O)N[C@@H](CCC(N)=O)C(=O)N[C@@H](CCCNC(=N)N)C(=O)N[C@@H](Cc1ccc(O)cc1)C(N)=O)[C@@H](C)O)C(C)C` [Compound 107, N{alpha-4}-(3-methylbutanoyl)-N{epsilon-7}-[2-(2-{2-[2-(2-{2-[(4S)-4-carboxy-4-(17-carboxyheptadecanamido)butanamido]ethoxy}ethoxy)acetamido]ethoxy}ethoxy)acetamido]-[4A,7K,9E,18Q,19K,22V,23A,28Y,30W,31L]hPYY (4-36)], the Ki is 1.1 nM.

`CC(C)CC(=O)N[C@@H](C)C(=O)N1CCC[C@H]1C(=O)N[C@@H](CCC(=O)O)C(=O)N[C@@H](CCCCNC(=O)COCCOCCNC(=O)COCCOCCNC(=O)CC[C@H](NC(=O)CCCCCCCCCCCCCCCCC(=O)O)C(=O)O)C(=O)N1CCC[C@H]1C(=O)N[C@@H](CCC(=O)O)C(=O)N[C@@H](CCC(=O)O)C(=O)N[C@@H](C)C(=O)N[C@@H](C)C(=O)N[C@@H](CO)C(=O)N1CCC[C@H]1C(=O)N[C@@H](CCC(=O)O)C(=O)N[C@@H](CCC(=O)O)C(=O)N[C@@H](CC(C)C)C(=O)N[C@@H](CCC(N)=O)C(=O)N[C@@H](CCCNC(=N)N)C(=O)N[C@@H](Cc1ccc(O)cc1)C(=O)N[C@@H](Cc1ccc(O)cc1)C(=O)N[C@H](C(=O)N[C@@H](CO)C(=O)N[C@@H](CC(C)C)C(=O)N[C@@H](CCCNC(=N)N)C(=O)N[C@@H](Cc1c[nH]cn1)C(=O)N[C@@H](Cc1ccc(O)cc1)C(=O)N[C@@H](Cc1ccc(O)cc1)C(=O)N[C@@H](CC(N)=O)C(=O)N[C@@H](Cc1c[nH]c2ccccc12)C(=O)N[C@@H](CC(C)C)C(=O)N[C@H](C(=O)N[C@@H](CCCNC(=N)N)C(=O)N[C@@H](CCC(N)=O)C(=O)N[C@@H](CCCNC(=N)N)C(=O)N[C@@H](Cc1ccc(O)cc1)C(N)=O)[C@@H](C)O)C(C)C` [Compound 109, N{alpha-4}-(3-methylbutanoyl)-N{epsilon-7}-[2-(2-{2-[2-(2-{2-[(4S)-4-carboxy-4-(17-carboxyheptadecanamido)butanamido]ethoxy}ethoxy)acetamido]ethoxy}ethoxy)acetamido]-[4A,7K,9E,11A,18Q,22V,28Y,30W,31L]hPYY (4-36)]: the Ki worked out at 0.94 nM.
